19 compounds from patent US20250296938A1, “Compounds that Interact with the Ras Superfamily for the Treatment of Cancers, Inflammatory Diseases, Rasopathies, and Fibrotic Disease” (SHY Therapeutics, LLC, priority 2018, published 2025) can be followed below.

Molecules are shown by their SMILES.

The subject of the first assay is HRas wild type. Description: Ras GTP binding domain inhibition assay (Cy3-GTP/Cy5-GTP competition). Also noted: species or system human. The conditions noted are these: at 20 μM, with SOS. Summed up: (§1)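 First, His-tagged protein is coated on nickel wells overnight at 4 °C. Next, compound (20 μM single point or serial dilution) is added for 3 h at room temperature, with or without Sos exchange factor in the last hour. Finally, 100 nM labelled GTP binds for 45 min and retained signal is measured.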
As to `Cn1ccc(-c2sc3nc(-c4nccn4C)nc(N[C@@H]4CC[C@H](O)C4)c3c2C2=CC=CCC=C2)n1` (racemic), the “HRAS wild type + SOS: % inh.” value was “A (1-25% inhibition)”.
Same read-out and setting: the same measure for `COc1cccc(-c2sc3nc(-c4nccn4C)nc(NC4CCC(OC)C4)c3c2-c2ccccc2)c1F` (centres unmarked) [drawing 1018]: “D (76-100% inhibition)”.

The assay is the same for the next values; noted with them: at 20 μM, without SOS.
`Cn1ccc(-c2sc3nc(-c4nccn4C)nc(N[C@@H]4CC[C@H](O)C4)c3c2C2=CC=CCC=C2)n1` (racemic): the “HRas wild type % inh.” value was “C (51-75% inhibition)”.
On the same count and under the same terms, the same measure for `COc1cccc(-c2sc3nc(-c4nccn4C)nc(NC4CCC(OC)C4)c3c2-c2ccccc2)c1F` (centres unmarked) [drawing 1018]: “D (76-100% inhibition)”.

In another assay the test system is IL-6. Description: Mouse IL6 quantification assay, LPS-stimulated RAW 264.7 macrophages. In kind it is cell-based. To be noted: RAW264.7, 10 μM, LPS (100 ng/ml) added concurrently, 5 hours, RAW 264.7. Summed up:
(§2)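 RAW 264.7 cells, serum-starved overnight (0.5% FBS), were pretreated with compounds at 30 μM (0.3% DMSO) for 3 h, then stimulated with LPS 100 ng/ml for 16 h at 37 °C; alternatively, 10 μM compound was added together with LPS for 5 h. Secreted TNF-α and IL-6 were quantified in supernatants by sandwich ELISA.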
Compound `COc1cccc(-c2sc3nc(-c4nccn4C)nc(N[C@H]4C[C@@H](OC)C4)c3c2-c2ccccc2)c1F` [drawing 756] registered an inhibition at 10 µM of 76 to 100%.
On the same count and under the same terms, the same measure for `CO[C@H]1C[C@@H](Nc2nc(-c3nccn3C)nc3sc(-c4cnn(C)c4)c(-c4ccccc4)c23)C1` [drawing 757]: 51 to 75%.
Same read-out and setting: with `COc1cccc(-c2sc3nc(-c4nccn4C)nc(NC4CCC(OC)C4)c3c2C)c1F` (centres unmarked) [drawing 758] the figure was 1 to 25%.
Take `COc1cccc(-c2sc3nc(-c4nccn4C)nc(N[C@@H]4CC[C@H](OC)C4)c3c2C)c1F` [drawing 759]: the inhibition at 10 µM fell in the range of 1 to 25%.
Same read-out and setting: with `COC1CCC(Nc2nc(-c3nccn3C)nc3sc(-c4cccc5[nH]ncc45)c(C)c23)C1` (centres unmarked) [drawing 760] the figure was 51 to 75%; with `COc1cccc(-c2sc3nc(-c4nc(C)cn4C)nc(N[C@@H]4CC[C@H](OC)C4)c3c2C)c1F` [drawing 761], 1 to 25%.
Still for that read-out and setting: the same measure for `CO[C@H]1CC[C@@H](Nc2nc(-c3nc(C)cn3C)nc3sc(-c4cccc5[nH]ncc45)c(C)c23)C1` [drawing 762]: 76 to 100%; for `COCCn1ccnc1-c1nc(O)c2scc(-c3ccc(OCC(C)C)nc3)c2n1` [drawing 763]: 26 to 50%; for `CC(C)COc1ccc(-c2csc3c(O)nc(-c4nccn4Cc4ccccn4)nc23)cn1` [drawing 764]: 76 to 100%.
On the same count and under the same terms, the same measure for `COc1cccc(Cn2ccnc2-c2nc(O)c3scc(-c4ccc(OCC(C)C)nc4)c3n2)c1` [drawing 765]: 76 to 100%; for `CO[C@H]1CC[C@@H](Nc2nc(-c3nccn3C)nc(C(=O)N3CCc4c(O)cccc4C3)c2C)C1` [drawing 766]: 0%.
In turn, `CO[C@H]1C[C@@H](Nc2nc(-c3ccccn3)nc3sccc23)C1` [drawing 767] returned an inhibition at 10 µM of 1 to 25%.
Still for that read-out and setting: with `CO[C@H]1C[C@@H](Nc2nc(-c3nccn3C)nc3sccc23)C1` [drawing 768] the figure was 26 to 50%; with `Cn1ccc(-c2sc3nc(-c4nccn4C)nc(O)c3c2-c2ccccc2)n1` [drawing 769], 51 to 75%; with `CO[C@H]1C[C@@H](Nc2nc(-c3nccn3C)nc3sc(-c4ccn(C)n4)c(-c4ccccc4)c23)C1` [drawing 770], 76 to 100%.
On the same count and under the same terms, the same measure for `CO[C@H]1C[C@H](Nc2nc(-c3nccn3C)nc3sc(-c4ccn(C)n4)c(-c4ccccc4)c23)C1` [drawing 771]: 76 to 100%; for `CN(C)CCOCCNc1nc(-c2nccn2C)nc2sc(-c3ccn(C)n3)c(-c3ccccc3)c12` [drawing 772]: 76 to 100%.

The subject of another assay is TNF-α. Nature of the assay: Mouse TNF alpha quantification assay, LPS-stimulated RAW 264.7 macrophages. To be noted: RAW264.7, 10 μM, LPS (100 ng/ml) added concurrently, 5 hours, RAW 264.7, read-out: TNFα % Inhibition. In kind it is cell-based. Summed up: as §2
Take `COc1cccc(-c2sc3nc(-c4nccn4C)nc(N[C@H]4C[C@@H](OC)C4)c3c2-c2ccccc2)c1F` [drawing 756]: the inhibition at 10 µM lay in the range of 51 to 75%.
Still for that read-out and setting: with `CO[C@H]1C[C@@H](Nc2nc(-c3nccn3C)nc3sc(-c4cnn(C)c4)c(-c4ccccc4)c23)C1` [drawing 757] the figure was 1 to 25%; with `COc1cccc(-c2sc3nc(-c4nccn4C)nc(NC4CCC(OC)C4)c3c2C)c1F` (centres unmarked) [drawing 758], 0%.
Still for that read-out and setting: with `COc1cccc(-c2sc3nc(-c4nccn4C)nc(N[C@@H]4CC[C@H](OC)C4)c3c2C)c1F` [drawing 759] the figure was 1 to 25%; with `COC1CCC(Nc2nc(-c3nccn3C)nc3sc(-c4cccc5[nH]ncc45)c(C)c23)C1` (centres unmarked) [drawing 760], 1 to 25%.
Consider `COc1cccc(-c2sc3nc(-c4nc(C)cn4C)nc(N[C@@H]4CC[C@H](OC)C4)c3c2C)c1F` [drawing 761], for which the inhibition at 10 µM came out at 0%.
Still for that read-out and setting: the same measure for `CO[C@H]1CC[C@@H](Nc2nc(-c3nc(C)cn3C)nc3sc(-c4cccc5[nH]ncc45)c(C)c23)C1` [drawing 762]: 26 to 50%.
On the same count and under the same terms, with `COCCn1ccnc1-c1nc(O)c2scc(-c3ccc(OCC(C)C)nc3)c2n1` [drawing 763] the figure was 1 to 25%.
Same read-out and setting: the same measure for `CC(C)COc1ccc(-c2csc3c(O)nc(-c4nccn4Cc4ccccn4)nc23)cn1` [drawing 764]: 1 to 25%; for `COc1cccc(Cn2ccnc2-c2nc(O)c3scc(-c4ccc(OCC(C)C)nc4)c3n2)c1` [drawing 765]: 1 to 25%; for `CO[C@H]1CC[C@@H](Nc2nc(-c3nccn3C)nc(C(=O)N3CCc4c(O)cccc4C3)c2C)C1` [drawing 766]: 1 to 25%.
Regarding `CO[C@H]1C[C@@H](Nc2nc(-c3ccccn3)nc3sccc23)C1` [drawing 767], the inhibition at 10 µM was in the range of 1 to 25%.
Same read-out and setting: the same measure for `CO[C@H]1C[C@@H](Nc2nc(-c3nccn3C)nc3sccc23)C1` [drawing 768]: 1 to 25%.
Take `Cn1ccc(-c2sc3nc(-c4nccn4C)nc(O)c3c2-c2ccccc2)n1` [drawing 769]: the inhibition at 10 µM was 1 to 25%.
On the same count and under the same terms, with `CO[C@H]1C[C@@H](Nc2nc(-c3nccn3C)nc3sc(-c4ccn(C)n4)c(-c4ccccc4)c23)C1` [drawing 770] the figure was 76 to 100%; with `CO[C@H]1C[C@H](Nc2nc(-c3nccn3C)nc3sc(-c4ccn(C)n4)c(-c4ccccc4)c23)C1` [drawing 771], 76 to 100%; with `CN(C)CCOCCNc1nc(-c2nccn2C)nc2sc(-c3ccn(C)n3)c(-c3ccccc3)c12` [drawing 772], 26 to 50%.

The next assay deals with Rac-1 (Homo sapiens, UniProt P63000). Description: Ras GTP binding domain inhibition assay (Cy3-GTP/Cy5-GTP competition). The conditions noted are these: at 20 μM, with SOS. Summed up: as §1
As for `COc1cccc(-c2sc3nc(-c4nccn4C)nc(NC4CCC(OC)C4)c3c2-c2ccccc2)c1F` (centres unmarked) [drawing 1018], the “Rac-1 + SOS: % inh.” value is “C (51-75% inhibition)”.

The same assay, now with this note: with SOS, read-out: Rac-1 + SOS: % inh.
On to `Cn1ccc(-c2sc3nc(-c4nccn4C)nc(N[C@@H]4CC[C@H](O)C4)c3c2C2=CC=CCC=C2)n1` (racemic), for which the inhibition at 20 µM was in the range of 1 to 25%.

The same assay, now with this note: without SOS, read-out: Rac-1: % inh.
Take `Cn1ccc(-c2sc3nc(-c4nccn4C)nc(N[C@@H]4CC[C@H](O)C4)c3c2C2=CC=CCC=C2)n1` (racemic): the inhibition at 20 µM fell in the range of 1 to 25%.
`COc1cccc(-c2sc3nc(-c4nccn4C)nc(NC4CCC(OC)C4)c3c2-c2ccccc2)c1F` (centres unmarked) [drawing 1018]: the inhibition at 20 µM was in the range of 51 to 75%.

For another assay, the target named is T1, KRas G12D mutant (Homo sapiens, UniProt P01116, G12D).
T1 construct: fused on or other part: His tag, used for capture on nickel-coated plates
Described as above. The conditions noted are these: at 20 μM, with SOS; read-out: KRas G12D mutant + SOS: % inh. The method in brief:
as §1
Take `Cn1ccc(-c2sc3nc(-c4nccn4C)nc(N[C@@H]4CC[C@H](O)C4)c3c2C2=CC=CCC=C2)n1` (racemic): the inhibition at 20 µM stood at 0%.
With `COc1cccc(-c2sc3nc(-c4nccn4C)nc(NC4CCC(OC)C4)c3c2-c2ccccc2)c1F` (centres unmarked) [drawing 1018], the inhibition at 20 µM was 51 to 75%.

Staying with this assay, now noted: at 20 μM, without SOS; read-out: KRas G12D mutant: % inh.
For `Cn1ccc(-c2sc3nc(-c4nccn4C)nc(N[C@@H]4CC[C@H](O)C4)c3c2C2=CC=CCC=C2)n1` (racemic), the inhibition at 20 µM was 0%.
`COc1cccc(-c2sc3nc(-c4nccn4C)nc(NC4CCC(OC)C4)c3c2-c2ccccc2)c1F` (centres unmarked) [drawing 1018]: the inhibition at 20 µM lay in the range of 26 to 50%.

For another assay, the target named is Rho-A (Homo sapiens, UniProt P61586). The description is as above. To be noted: at 20 μM, with SOS. The method in brief: as §1
Regarding `COc1cccc(-c2sc3nc(-c4nccn4C)nc(NC4CCC(OC)C4)c3c2-c2ccccc2)c1F` (centres unmarked) [drawing 1018], the “Rho-A + SOS: % inh.” value is listed as “C (51-75% inhibition)”.

The assay is the same for the next values; noted with them: at 20 μM, without SOS.
For `COc1cccc(-c2sc3nc(-c4nccn4C)nc(NC4CCC(OC)C4)c3c2-c2ccccc2)c1F` (centres unmarked) [drawing 1018], the “Rho-A: % inh.” value is “C (51-75% inhibition)”.

Still in this assay, the particulars now being: with SOS, read-out: Rho-A + SOS: % inh.
Turning to `Cn1ccc(-c2sc3nc(-c4nccn4C)nc(N[C@@H]4CC[C@H](O)C4)c3c2C2=CC=CCC=C2)n1` (racemic), the inhibition at 20 µM lay in the range of 1 to 25%.

The assay is the same for the next values; noted with them: without SOS, read-out: Rho-A: % inh.
Regarding `Cn1ccc(-c2sc3nc(-c4nccn4C)nc(N[C@@H]4CC[C@H](O)C4)c3c2C2=CC=CCC=C2)n1` (racemic), the inhibition at 20 µM is 26 to 50%.
